Reference: US20160319277A1, “METHODS OF IMPROVED PROTEIN PRODUCTION USING MIRNAs AND SIRNAs” (THE JOHNS HOPKINS UNIVERSITY, priority 2015, published 2016)
Read-outs that look alike come from different tables or passages of the source.

Tested on: HEK-CMV-Luc2-Hygro cells
Experiment: High-throughput genome-wide siRNA screen and validation screen for luciferase expression
Format: cell-based, human
Conditions: for per_cell / VIA: Table 3; for per_cell: per cell luciferase yield relative to negative control; for VIA: viable cell density as % of negative control
Method: The Silencer Select™ Human genome siRNA library (Ambion), which targets 21,585 human genes with 3 siRNAs per gene, was used for screening. Each siRNA is arrayed in an individual well (Corning 3570, 384 well, white, solid bottom plates). The transfection was done in duplicates: 0.8 pmol of each siRNA was spotted to a well of a 384-well plate (Corning) and 20 μL of serum-free DMEM containing 0.07 μL of Lipofectamine™ RNAiMax (Life Technologies) was then added to each well. This lipid-siRNA mixture was incubated at ambient temperature for 30 min prior to addition of 4000 cells in 20 μL of DMEM containing 20% FBS (Gibco). After incubating the transfected cells at 37° C. in 5% CO2 for 72 hours, 20 μL of ONE-Glo™ Reagent (Promega) was added to one set of replicates for ‘overall luciferase yield’ quantification and 20 μL of CellTiter-Glo™ Reagent (Promega) was added to the second set of replicates for ‘viable cell density’ measurement. All plates were incubated at room temperature for 20 minutes to stabilize the luminescent signal and the signal was then measured with PerkinElmer Envision 2104 Multilabel™ plate reader.
The 56 genes which got targeted by at least two independent siRNAs (out of three) resulting in enhanced luciferase production with MAD-based z-score>3 from the primary screen were subjected to validation screen using 3 additional Silencer™ siRNAs (Ambion) with different sequences from those used in the primary screen. […] The transfection and assay processes were-the same as the primary genome-wide screen. Data visualization was performed in R computational environment (available on the World Wide Web at R-project.org/) by using ‘hexbin’ and ‘ggplot2’ packages.
The screen generated end-point data for ‘overall luciferase yield’ and ‘viable cell density’ in each well. For each plate, the median value of the negative control wells was set as 100% and was used to normalize corresponding sample wells. The ‘overall luciferase yield’ and ‘viable cell density’ were exported as % of negative control and the median absolute deviation (MAD)-based z-score was calculated for each sample.

[1] = Table 4, primary screen, 72 h, negative control = 100%

Substance: 83 (GCGGAAAAGGUAUCCCUCATT; chemistry not given here; listed as Homo sapiens) [compound 83]
- per_cell (primary screen, 72 h): 184.6
- VIA (primary screen, 72 h): 80.17

Substance: 84 (GGCUGUACAUAGUCCUUUUTT; chemistry not given here; listed as Homo sapiens) [compound 84]
- per_cell (primary screen, 72 h): 238.5
- VIA (primary screen, 72 h): 66.39

Substance: 85 (CUGCCGCAACAAUAAGAAATT; chemistry not given here; listed as Homo sapiens) [compound 85]
- per_cell (primary screen, 72 h): 171.2
- VIA (primary screen, 72 h): 82.95

Substance: 86 (CAUUGGUUUUGAUGAGUAUTT; chemistry not given here; listed as Homo sapiens) [compound 86]
- per_cell (primary screen, 72 h): 226.7
- VIA (primary screen, 72 h): 64.38

Substance: 87 (GGUGUAAUAAUGUCCUUUATT; chemistry not given here; listed as Homo sapiens) [compound 87]
- per_cell (primary screen, 72 h): 188.1
- VIA (primary screen, 72 h): 79.39

Substance: 88 (GAGCAGAGAUCAUAACCAATT; chemistry not given here; listed as Homo sapiens) [compound 88]
- per_cell (primary screen, 72 h): 141.1
- VIA (primary screen, 72 h): 108.2

Substance: 89 (GGAUCACGCAGCUCAAGAUTT; chemistry not given here; listed as Homo sapiens) [compound 89]
- per_cell (primary screen, 72 h): 161.6
- VIA (primary screen, 72 h): 91.54

Substance: 90 (GGUGCUCUCGGUUGCACAATT; chemistry not given here; listed as Homo sapiens) [compound 90]
- per_cell (primary screen, 72 h): 187.4
- VIA (primary screen, 72 h): 82.33

Substance: 91 (CAGCAAACCUUUGACCAGATT; chemistry not given here; listed as Homo sapiens) [compound 91]
- per_cell (primary screen, 72 h): 277.5
- VIA (primary screen, 72 h): 55.4

Substance: 92 (CCAGUUCGACCUGAACAAATT; chemistry not given here; listed as Homo sapiens) [compound 92]
- per_cell (primary screen, 72 h): 176
- VIA (primary screen, 72 h): 85.75

Substance: 93 (CAGCCUCACCAAGCACAAATT; chemistry not given here; listed as Homo sapiens) [compound 93]
- per_cell (primary screen, 72 h): 167.4
- VIA (primary screen, 72 h): 85.87

Substance: 94 (AGAGGCUACUUUGAAAACATT; chemistry not given here; listed as Homo sapiens) [compound 94]
- Viable cell density (%) [1]: 66.938%
- per cell luciferase yield (%) [1]: 227.583%

Substance: 95 (CAAGUCACCUGUUACCUCATT; chemistry not given here; listed as Homo sapiens) [compound 95]
- Viable cell density (%) [1]: 88.955%
- per cell luciferase yield (%) [1]: 171.805%

Substance: 96 (ACACUCUUGUGGUCAAGAATT; chemistry not given here; listed as Homo sapiens) [compound 96]
- Viable cell density (%) [1]: 73.809%
- per cell luciferase yield (%) [1]: 227.741%

Substance: 97 (GAUGAAGAAUGAUAAGUCATT; chemistry not given here; listed as Homo sapiens) [compound 97]
- Viable cell density (%) [1]: 96.599%
- per cell luciferase yield (%) [1]: 184.201%

Substance: 98 (CAACGGGACUAUUAUGAUATT; chemistry not given here; listed as Homo sapiens) [compound 98]
- Viable cell density (%) [1]: 97.392%
- per cell luciferase yield (%) [1]: 163.496%

Substance: 99 (CCCGGAUACUUCUGAAGAATT; chemistry not given here; listed as Homo sapiens) [compound 99]
- Viable cell density (%) [1]: 75.879%
- per cell luciferase yield (%) [1]: 227.884%

Substance: 100 (GAACGAGUACAGCAAUAUATT; chemistry not given here; listed as Homo sapiens) [compound 100]
- Viable cell density (%) [1]: 108.214%
- per cell luciferase yield (%) [1]: 140.868%

Substance: 101 (GUUCAUCCAUAAGUACAUUTT; chemistry not given here; listed as Homo sapiens) [compound 101]
- Viable cell density (%) [1]: 83.129%
- per cell luciferase yield (%) [1]: 238.606%

Substance: 102 (AGAUCUUUGUCAAGGUGUATT; chemistry not given here; listed as Homo sapiens) [compound 102]
- Viable cell density (%) [1]: 96.256%
- per cell luciferase yield (%) [1]: 153.438%

Substance: 103 (GACAUUGGAUCAUACUAAATT; chemistry not given here; listed as Homo sapiens) [compound 103]
- Viable cell density (%) [1]: 88.908%
- per cell luciferase yield (%) [1]: 185.522%

Substance: 104 (GGCGAAUGCUCCUGACUAATT; chemistry not given here; listed as Homo sapiens) [compound 104]
- Viable cell density (%) [1]: 103.888%
- per cell luciferase yield (%) [1]: 156.977%

Substance: 105 (GCGCAAGCUUAAGAACUUUTT; chemistry not given here; listed as Homo sapiens) [compound 105]
- Viable cell density (%) [1]: 94.579%
- per cell luciferase yield (%) [1]: 170.349%

Substance: 106 (GCUCAUCGACAUCAAAGUUTT; chemistry not given here; listed as Homo sapiens) [compound 106]
- Viable cell density (%) [1]: 97.007%
- per cell luciferase yield (%) [1]: 170.088%

Substance: 107 (CCAUAUAUCCGAAUGACCATT; chemistry not given here; listed as Homo sapiens) [compound 107]
- Viable cell density (%) [1]: 63.879%
- per cell luciferase yield (%) [1]: 256.443%

Substance: 108 (CGGAAUCAAUGAUCCUGUATT; chemistry not given here; listed as Homo sapiens) [compound 108]
- Viable cell density (%) [1]: 71.395%
- per cell luciferase yield (%) [1]: 212.652%

Substance: 109 (GCAUCGAGGAGACUAACAATT; chemistry not given here; listed as Homo sapiens) [compound 109]
- Viable cell density (%) [1]: 51.696%
- per cell luciferase yield (%) [1]: 275.068%

Substance: 110 (CAAUGAUUCUUACCCUCAATT; chemistry not given here; listed as Homo sapiens) [compound 110]
- Viable cell density (%) [1]: 77.169%
- per cell luciferase yield (%) [1]: 257.929%

Substance: 111 (CAACCUUAUUAUCAUUGAATT; chemistry not given here; listed as Homo sapiens) [compound 111]
- Viable cell density (%) [1]: 49.133%
- per cell luciferase yield (%) [1]: 300.611%

Substance: 112 (GUUUCAUCUGGGUUCGCUATT; chemistry not given here; listed as Homo sapiens) [compound 112]
- Viable cell density (%) [1]: 62.659%
- per cell luciferase yield (%) [1]: 233.649%

Substance: 113 (GCAUCAGCUCACAACAAAATT; chemistry not given here; listed as Homo sapiens) [compound 113]
- Viable cell density (%) [1]: 35.915%
- per cell luciferase yield (%) [1]: 409.361%

Substance: 114 (GUCCUAUCACCGUAUCUUATT; chemistry not given here; listed as Homo sapiens) [compound 114]
- Viable cell density (%) [1]: 55.962%
- per cell luciferase yield (%) [1]: 266.627%

Substance: 115 (AGAUACUGGUAUUGCUCGATT; chemistry not given here; listed as Homo sapiens) [compound 115]
- Viable cell density (%) [1]: 54.559%
- per cell luciferase yield (%) [1]: 388.072%

Substance: 116 (UGGUCUCAAUGACAGUAGATT; chemistry not given here; listed as Homo sapiens) [compound 116]
- Viable cell density (%) [1]: 53.645%
- per cell luciferase yield (%) [1]: 370.824%

Substance: 117 (GGCUGUACAUAGUCCUUUUTT; chemistry not given here; listed as Homo sapiens) [compound 117]
- Viable cell density (%): 66.394%
- per cell luciferase yield (%) [1]: 238.463%

Substance: 118 (UGUGGACUGAGGUACCCAATT; chemistry not given here; listed as Homo sapiens) [compound 118]
- Viable cell density (%) [1]: 58.901%
- per cell luciferase yield (%) [1]: 247.842%

Substance: 119 (CUGCCGCAACAAUAAGAAATT; chemistry not given here; listed as Homo sapiens) [compound 119]
- Viable cell density (%) [1]: 82.950%
- per cell luciferase yield (%) [1]: 171.198%

Substance: 120 (GGAUCAUGCUAAAAGGAGATT; chemistry not given here; listed as Homo sapiens) [compound 120]
- Viable cell density (%) [1]: 54.945%
- per cell luciferase yield (%) [1]: 311.516%

Substance: 121 (CAUUGGUUUUGAUGAGUAUTT; chemistry not given here; listed as Homo sapiens) [compound 121]
- Viable cell density (%): 64.385%
- per cell luciferase yield (%) [1]: 226.659%

Substance: 122 (AGGGCUAUCUGGUAUCUGUTT; chemistry not given here; listed as Homo sapiens) [compound 122]
- Viable cell density (%): 54.854%
- per cell luciferase yield (%) [1]: 283.281%

Substance: 123 (GGUGUAAUAAUGUCCUUUATT; chemistry not given here; listed as Homo sapiens) [compound 123]
- Viable cell density (%) [1]: 79.386%
- per cell luciferase yield (%) [1]: 188.094%
